From patent US20100311036A1, “Methods for Augmentation of Cell Cryopreservation” (UNIVERSITY OF SOUTH CAROLINA, priority 2009, published 2010)

Assays:
R1 mouse ES cells [1] = test: immediate cell viability post cryopreservation (membrane integrity, live/dead assay); type: cell-based; conditions: post ultrafast vitrification in quartz microcapillary; 2 M PROH and/or 0.5 M extracellular trehalose; within 3 hr at day 0
Protocol: (§1) A novel ultrafast cooling (cooling rate >2×10^5° C./min) technique for ice-free cryopreservation (i.e., ultrafast vitrification) of mouse ES cells has been recently developed using quartz microcapillaries (180 μm in inner diameter and 10 μm in wall thickness in the working part). A comparison of the quartz microcapillary and the traditional French type plastic straw used for cell vitrification is given in FIG. 2. […]
(§2) The immediate cell viability post cryopreservation represented by membrane integrity was assessed using the standard live/dead assay kit of two fluorescent probes: calcein AM and ethidium homodimer (Invitrogen, Carlsbad, Calif.). Cells that excluded ethidium homodimer and retained the fluorescent calcein were counted as being viable. To check cell viability more than one day post cryopreservation, cell attachment evaluated at day 1 and proliferation/growth evaluated over a three-day observation period were also studied. […] The number of cells in at least 20 randomly selected representative fields under a 10× objective was counted every day for all the samples. Proliferation was assessed by normalizing the number of cells at day 3 and day 2 to that at day 1. Attachment efficiency (i.e., viability at day 1) was calculated as the ratio of the number of cells of a cryopreserved sample to that of the control non-frozen sample at day 1. […]

R1 mouse ES cells [2] = test: attachment efficiency (1 day viability) post cryopreservation; type: cell-based; conditions: post ultrafast vitrification in quartz microcapillary; 2 M PROH and/or 0.5 M extracellular trehalose; day 1, relative to non-frozen control
Protocol: as §1, §2

Compound | immediate cell viability (R1 mouse ES cells [1]) | 1 day viability (attachment efficiency) (R1 mouse ES cells [2]) [%]
CC(O)CO (stereo not shown) [1,2-propanediol] | ~20% | ~12
OC[C@H]1O[C@H](O[C@H]2O[C@H](CO)[C@@H](O)[C@H](O)[C@H]2O)[C@H](O)[C@@H](O)[C@@H]1O [trehalose] | about 65% | < 2
